#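 Five concentrations, 48 hours, 96-well plates. GI50 = concentration required for 50% inhibition of growth. Definition used: TGI = concentration required for complete inhibition of growth.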
# Assays:
# Experiment in all cases: inhibition of tumour cell growth, NCI panel, 48 h
# T-47D breast = system: T-47D breast
# SK-MEL-28 melanoma = system: SK-MEL-28 melanoma
# PC-3 prostate = system: PC-3 prostate
# HCT-15 colon = system: HCT-15 colon
# HS 578T breast = system: HS 578T breast
# MOLT-4 leukemia = system: MOLT-4 leukemia
# DU-145 prostate = system: DU-145 prostate
# K-562 leukemia = system: K-562 leukemia
# NCI-H23 lung = system: NCI-H23 lung
# UACC-257 melanoma = system: UACC-257 melanoma
Structure (SMILES),GI50 (T-47D breast) [µM],TGI (T-47D breast) [µM],GI50 (SK-MEL-28 melanoma) [µM],TGI (SK-MEL-28 melanoma) [µM],GI50 (PC-3 prostate) [µM],TGI (PC-3 prostate) [µM],GI50 (HCT-15 colon) [µM],TGI (HCT-15 colon) [µM],GI50 (HS 578T breast) [µM],TGI (HS 578T breast) [µM],GI50 (MOLT-4 leukemia) [µM],TGI (MOLT-4 leukemia) [µM],GI50 (DU-145 prostate) [µM],TGI (DU-145 prostate) [µM],GI50 (K-562 leukemia) [µM],TGI (K-562 leukemia) [µM],GI50 (NCI-H23 lung) [µM],TGI (NCI-H23 lung) [µM],GI50 (UACC-257 melanoma) [µM],TGI (UACC-257 melanoma) [µM]
O=C1c2cccnc2-c2nc(-c3cccnc3)cc3c2c1nc1ccccc13,10.4,> 65.2,20.5,59,4.4,26.7,1.63,4.58,2.94,> 20.9,3.21,> 41.3,3,8.31,1.67,> 100,3.7,20.7,10.1,15.1
COc1cc(OCc2cccc(-c3ccccc3)c2C)cc(OC)c1CN1CCCCC1C(=O)NCCOCCOCCN (stereo not given),1.77,3.77,1.75,3.22,2.76,11.6,3.09,11.1,1.93,4.56,2.08,5.79,4.61,16.1,1.86,4.4,5.22,19.2,1.83,3.68
CCN1[C@@H](C(=O)NC23CCC(C(=O)O)(CC2)CC3)[C@H](c2cccc(Cl)c2F)[C@]2(C(=O)Nc3cc(Cl)ccc32)C12CCCCC2,3.13,19.4,3.71,14,2.42,9.21,2.57,12.5,2.05,10.1,0.164,> 22.9,5.47,18.5,2.98,> 100,3.53,17.4,0.228,1.86
O=C(CC1(O)C(=O)Nc2ccc(F)cc21)c1ccc(C(=O)NCC2CCC3(CC2)OOC2(CCCCC2)OO3)cc1 (stereo not given),5,44.2,13.9,32.4,3.86,19.3,11.4,27.9,11.4,47.4,3.72,28.8,3.49,12.2,3.49,21.9,3.62,19.9,12.7,29.9
CCSc1ccc([C@@H]2[C@@H](O)C(=O)N2c2cc(OC)c(OC)c(OC)c2)cc1,14.2,45.8,11.7,33,0.0146,79.7,< 0.0109,> 44.3,< 0.01,> 69.2,0.0384,17.7,0.0252,> 50.3,< 0.01,> 69.9,0.0456,61,0.0877,35
N=c1ccc2nc3ccc(N)cc3sc-2c1,4.05,18.8,13.1,32.6,2.56,15.6,5.4,> 100,20.9,> 100,4.59,> 100,16.8,40.8,4.47,74.9,2.77,14.3,2.75,11.1

# From PubChem BioAssay (NCI)
